Where “and” joins values, the source holds several entries; their conditions need not be identical. Equal values may be shown once. Read-outs that look alike come from different tables or passages of the source.
Legend:
[1] = tested on: Mouse striatal Q7 cells (STHdhQ7/Q7); assay: RSL3 ferroptosis cell rescue (cellular survival assay, CellTiter-Glo)
[2] = molecular target: T1, Rabbit 15-lipoxygenase (rLOX15) (Oryctolagus cuniculus, UniProt P12530); assay: Lipoxygenase enzyme inhibition assay; assay type: biochemical; details: for inhibition of rabbit 15-LO enzyme activity: arachidonic acid as substrate, up to 100 μM; for IC50 / activity at 100 µM: rabbit 15-LO; for IC50: 50 μM arachidonic acid substrate; for activity at 100 µM: compound 100 μM, read-out: 15-Lipoxygenase Enzyme Assay % activity at 100 μM
T1 construct: purchased Enzo Life Sciences, Inc. BML-PL015
T1 sequence (P12530 1-663): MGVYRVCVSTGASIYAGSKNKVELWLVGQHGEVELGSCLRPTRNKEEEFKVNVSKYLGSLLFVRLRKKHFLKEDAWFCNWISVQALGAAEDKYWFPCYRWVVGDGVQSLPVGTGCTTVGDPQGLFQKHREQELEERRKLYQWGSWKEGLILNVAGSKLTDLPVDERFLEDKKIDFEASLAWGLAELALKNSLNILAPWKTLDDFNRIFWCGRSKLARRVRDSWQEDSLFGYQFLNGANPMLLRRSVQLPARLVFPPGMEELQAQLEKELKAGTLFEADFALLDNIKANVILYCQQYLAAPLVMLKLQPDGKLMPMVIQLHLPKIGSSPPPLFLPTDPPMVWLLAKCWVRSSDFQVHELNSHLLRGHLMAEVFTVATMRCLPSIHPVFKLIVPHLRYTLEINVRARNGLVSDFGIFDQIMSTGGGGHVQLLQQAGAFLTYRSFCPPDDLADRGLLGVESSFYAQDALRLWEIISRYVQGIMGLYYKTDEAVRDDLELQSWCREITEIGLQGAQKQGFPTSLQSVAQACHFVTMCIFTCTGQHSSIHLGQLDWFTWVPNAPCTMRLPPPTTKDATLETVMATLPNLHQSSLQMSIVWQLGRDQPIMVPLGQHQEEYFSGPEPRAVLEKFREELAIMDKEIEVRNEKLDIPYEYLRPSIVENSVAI
Description: Rabbit 15-lipoxygenase (rLOX15, part number BML-PL015, lot number 3-P9009a) was obtained from Enzo Life Sciences, Inc. Sodium cholate (part number C6445, lot number 094K0209) was obtained from Sigma-Aldrich.
Stock solutions of test compounds were prepared in DMSO and then diluted to final assay concentrations in cholate mix such that final cholate and DMSO concentrations were maintained at 0.2%.

[3] = Radical-trapping antioxidant (RTA) activity assay in DOPC liposomes; details: for Radical Trapping Assay AUC (Rel. Control): 50 μM compound, 2 mol% in DOPC liposomes, BODIPY 581/591 C11 quenching, liposome-only control = 1; for RTA AUC fold greater than αTQ and αTHQ: DOPC liposomes, AUC relative to liposome only control
[4] = tested on: 15-HETE release from Q7 cells; assay: Targeted arachidonate metabolite release cellular assay (RSL3-treated Q7 cells); assay type: cell-based, mouse
Description: Ferroptosis was initiated by RSL3 (2 μM final concentration) in Q7 cells as described above. The protective activity of co-treated compounds was assessed also as described above. Four to five hours after RSL3 treatment, the conditioned medium was collected into 1.2-mL cluster tubes containing ice-cold acetonitrile at a ratio of 1:2. Tubes were snap frozen on dry ice and stored at -80°C.
Prior to analysis, samples were thawed on wet ice and then vortexed briefly. Samples were centrifuged at 4000 rpm for 15min at 4°C. Supernatant (40 μL) was transferred to a 96-well injection plate and 10 μL of both internal standard and HPLC grade water were added. A Shimadzu Nexera MP system coupled to a Sciex 6500 Qtrap and configured for micro-flow was used to analyze all samples. Samples were maintained at 4°C in the Nexera MP autosampler for the duration of the analytical run.
A Thermo Gold-C8 column (1.9 μm, 1.0 x 100 mm) operated at 45°C was used for chromatographic separation. The total run time of the liquid chromatography method was 10 min. Mobile phase A consisted of water with 0.1% formic acid. Mobile phase B was composed of 0.1% formic acid in 3:1 acetonitrile:isopropyl alcohol. Gradient elution was employed, with mobile phase B being ramped from 5% at 0min, to 50% at 2 min, and finally 98% at 7.5 min. Electrospray conditions for the μLC-ESI-MS/MS method were optimized for a flow rate of 125 μL/min and were as follows: Ion spray voltage was set to -4500 V, temperature of 250°C, curtain gas of 20, CAD gas of 10, and ion source gas 1 and 2 of 20 and 40 psi, respectively. Analyzer parameters were optimized for each compound using a combination of manual tuning and compound optimization. The following MRM transitions were used to quantify concentrations of 15-HETE, 12-HETE and Arachidonic Acid (AA). 15-HETE: 319→219; 12-HETE: 319→179; AA: 303→259.

[5] = ORAC (oxygen radical absorbance capacity) assay; details: average of 25 and 12.5 μM compound; mean, SEM, n = 6
Description: ORAC assay kits were purchased from Cell Biolabs. Assays were performed per the manufacturer’s instructions for lipophilic samples with minor modifications. DMSO stock solutions of compounds were diluted in an anaerobic glovebox to final concentrations of 25 and 12.5 μM in triplicate. A standard curve of Trolox® between 0–100 μM in triplicate per concentration was also generated on each assay plate. Diluted compounds and standards were removed from the glovebox and reactions initiated by addition of aerobic fluorescein reagent and radical initiator. Fluorescein fluorescence was monitored at excitation wavelength of 480 nm and emission wavelength of 520 nm every minute for one hour. AUC analysis was performed as described in the kit protocol. The “Trolox equivalents” at each concentration of test compound were calculated and the average Trolox equivalents at the two compound concentrations are presented. The errors were determined by propagating errors from the SEMs of the triplicate determinations to the averages across the two triplicate determinations.

Q7 cells [6] = assay: Cellular lipid oxidation assay (BODIPY 581/591 C11, RSL3-treated Q7 cells); assay type: cell-based, mouse; details: RSL3 2 μM, 6-point titration, time-lapse microscopy
Description: Ferroptosis was induced by RSL3 (2 μM final concentration) in Q7 cells as described above. The protective activity of co-treated compounds was assessed also as described above. The rate of cellular lipid oxidation after GPX4 inhibition was assessed by monitoring the time-dependent changes in green fluorescence of cells pre-labeled with BODIPY™ 581/591 C11 dye (5 μM, 30-minute labeling period; Thermo Fisher/Invitrogen) using the IncuCyte S3 live-cell imaging apparatus (Sartorius) using a 10x objective. Cells (three images per field; at least three replicate wells per condition) were imaged once hourly for up to 18 hours after compound and RSL3 addition. Quantification of cell images was performed using the IncuCyte Zoom software using the Basic Analyzer tool which utilized an algorithm that calculated the total green-positive area per well where “green-positive” was defined as 1.45 times the local background-subtracted fluorescent signal. After a 2-3-hour lag period post-RSL3 treatment, the cellular green fluorescence signal began increasing. The rate of change in total green-positive area per well from 3–9 hours post-compound treatment was calculated, then expressed relative to that observed in the RSL3-only control treatment group, which was defined as 100%.

Q7 cells [7] = assay: Cellular quantification of αTCC in Q7 cells (LC-MS/MS, succinate capping); assay type: in vitro ADME, mouse; details: 6 technical replicates in each of 4 experiments
Description: Due to poor ionization of αTCC, the succinate capping method was used for quantification of the succinate ester derivative formed by cell lysis with 100 mg/mL succinic anhydride in 95:5 (acetonitrile:triethylamine).
Q7 cells were cultured in standard culture medium for 18 hours prior to compound addition. After the specified treatment time, the culture medium was removed and adherent cells were washed with PBS. The wash was removed and adherent cells were harvested by adding 1 mL of 100 mg/mL succinic anhydride in 95:5 (acetonitrile:triethylamine) followed by immediate cell scrapping. After cell scrapping, samples were transferred to a 1.5 mL Eppendorf tube, vortexed for 15 seconds, and kept on wet ice until all samples were harvested. […]
Samples were analyzed using a developed method on a Shimadzu 30AD using micro-flow with a Shimadzu SIL-30AC autosampler, and coupled to an AB Sciex 6500+ QTRAP mass spectrometer. […] Analyzer parameters were optimized for each compound using a combination of manual tuning and compound optimization. αTCC was measured as αTCC-succinate. […]
A Phenomenex Kinetex C18 (2.1 x 50 mm, 1.3 µm) column using a reverse phase gradient mobile phase method was used for chromatographic separation. […] Data were analyzed using Sciex Analyst Chromatography software, version 1.6.2 and Sciex MultiQuant software. […]

Q7 cells [8] = details: mouse
Q7 cells [9] = assay: Intracellular quantification of αT, αTQ and αTHQ in Q7 cells (LC-MS/MS, succinate capping); details: αTQ 10 μM, 24 h
[10] = Mus musculus, 18 h, read-out: RSL3 Ferroptosis Cell Assay Average EC50, Q7 cells, RSL3 2 μM, 18 h co-treatment, CellTiter-Glo 2.0
[11] = read-out: RSL3 Ferroptosis Cell Assay Average EC50, Q7 cells, RSL3 2 μM, 18 h co-treatment, CellTiter-Glo 2.0

| Structure (SMILES) | EC50 [1, 10] [µM] | EC50 [1, 11] [µM] | inhibition of rabbit 15-LO enzyme activity [2] | IC50 [2] [µM] | activity at 100 µM [2] [%] | Radical Trapping Assay AUC (Rel. Control) [3] | RTA AUC fold greater than αTQ and αTHQ [3] | ORAC Antioxidant Activity Assay Trolox Equiv. [5] | effect on RSL3-induced lipid oxidation (BODIPY 581/591 C11 oxidation) (Q7 cells [6]) | also measured |
| --- | --- | --- | --- | --- | --- | --- | --- | --- | --- | --- |
| Cc1c(C)c2c(c(C)c1O)CC[C@@](C)(CCC[C@H](C)CCC[C@H](C)CCCC(C)C)O2 [αT, α-tocopherol, reference compound] | 5.16 | 5.2 ± 2.8 | did not | > 100 | 78 | 5.123 | 2.5–4 fold | 0.073 Trolox Equiv. and 0.073 ± 0.008 Trolox Equiv. | prevented | reduction of RSL3-induced 15-HETE production ([4]; RSL3 co-treatment, compound 10 μM): 19% |
| Cc1c(C)c2c(c(C)c1O)CCC(C)(CCCC(C)CCCC(C)CCCC(C)C)C2 (stereo not drawn) [αTCC, 1,3,4,6-Tetramethyl-6-(4,8,12-trimethyltridecyl)-5,6,7,8-tetrahydronaphthalen-2-ol] | > 30 |  | did not | > 100 | 77 | 4.706 | 2.5–4 fold | 0.075 Trolox Equiv. and 0.075 ± 0.008 Trolox Equiv. |  | rescue at 30 μM ([1]; Q7 cells, RSL3 2 μM, 30 μM highest concentration tested, mean ± SD, N = 7): 42 ± 21%; cellular exposure of αTCC (Q7 cells [7]): > 50 µM |
| CC1=C(C)C(=O)C(CC[C@](C)(O)CCC[C@H](C)CCC[C@H](C)CCCC(C)C)=C(C)C1=O [αTQ, α-tocopherol quinone] | 0.233 | 0.23 ± 0.1 | did not | > 100 | 75 | 1.217 |  | 0.044 Trolox Equiv. | prevented | fold more potent than αT in preventing ferroptotic cell death ([1]; Q7 cells, RSL3, EC50 ratio vs αT): 22 fold; fold increase in cellular αTHQ after αTQ supplementation (Q7 cells [8]): > 600 fold; fold increase in cellular αTQ after αTQ supplementation (Q7 cells [8]): > 300 fold; cellular exposure of αT after αTQ supplementation (back-conversion) (Q7 cells [9]): unaffected; cellular αTQ exposure after αTQ supplementation (Q7 cells [9]): over 250 μM; IC50 ([4]; Mus musculus, RSL3 2 μM, conditioned medium 4-5 h, read-out: IC50 for RSL3-induced cellular release of 15-HETE): 600 nM; effect on 12-HETE levels ([4]; RSL3, compound 5 μM): not altered; effect on cellular or released AA levels ([4]; RSL3, compound 5 μM): no effect; effect on RSL3-dependent induction of cellular and released 15-HETE ([4]; compound 5 μM): inhibited |

Source: publication PMC6093661, “Vitamin E hydroquinone is an endogenous regulator of ferroptosis via redox control of 15-lipoxygenase” (PLoS ONE, 2018)
